Results reported in patent US20250092086A1, “CELASTROL SALTS, CRYSTALLINE FORMS, AND USES THEREOF” (ERX Pharmaceuticals Inc., priority 2022, published 2025).
≈ marks a conversion by molar mass, not a printed value. Entries after “also recorded” stand apart in the source; their conditions may differ.

How the values were obtained:
Format in all cases: physicochemical
[1] = Hygroscopicity (DVS), water sorption/desorption at 37° C.; conditions: for DVS (hygroscopicity): water sorption/desorption isotherms at 37° C., 0-95% RH
Protocol: The hygroscopicity experiments were carried out with a DVS Intrinsic from S.M.S. This technique is designed to accurately measure a sample's change in mass as it sorbs precisely controlled concentrations of water vapors in an air carrier gas. The method used for DVS experiments (at 37° C.) is summarized below. • Equilibrating 10 min at 50% RH • Decreasing to 0% RH in 60 min • Equilibrating 10 min at 0% RH • Increasing to 95% RH in 280 min • Equilibrating 10 min at 95% RH • Decreasing to 50% RH in 100 min • Equilibrating 20 min at 50% RH
(§1) The hygroscopic experiments were carried out with a DVS Intrinsic from S.M.S. This technique is designed to accurately measure a sample's change in mass as it sorbs precisely controlled concentrations of water vapors in an air carrier gas. All the methods used for DVS experiments are summarized below. It should be noticed that the temperature and relative humidity (RH) are pre-set according to the initial temperature and RH.
• Equilibrating 120 min at 50% RH • Decreasing to 0% RH in 60 min • Equilibrating 150 min at 0% RH • Increasing to 95% RH in 200 min • Equilibrating 360 min at 95% RH • Decreasing to 50% RH in 100 min • Equilibrating 150 min at 50% RH
as §1, with “hygroscopicity” for “hygroscopic”, “below, and it” for “below. It”
as §1, with “hygroscopicity” for “hygroscopic”

[2] = Polymorph screening, cooling experiments (solubility of Form III in screening solvents); conditions: all solvents tested with the exception of dichloromethane, even at high temperature
Protocol: Solutions of Compound 1 Form III were prepared at respectively 50 and 150 g/L in each solvent. Heat was applied when necessary to get a solution. Once a solution was obtained, the vials were cooled down to 10° C.

[3] = pH solubility profile at 37° C. of Compound 1 Form III
Protocol: All the buffer solutions were prepared according to the U.S.P namely hydrochloric acid buffer for pH=2.0, acid phthalate buffer for pH=4.0, phosphate buffer for pH=6.0, alkaline borate buffer for pH=8.0, which correspond to the native pH. At the end of the solubility study, the pH of the solutions were controlled again (final pH) to determine any variation. The solubility was measured at 37° C. The maximum concentration limit was set at 100 g/L max to minimize consumption of the tested compound.

[4] = XRPD under temperature and relative humidity; conditions: for XRPD under temperature: impact / new crystalline phase: 25 to 100° C., RH set at 30%; for XRPD under relative humidity: impact / new crystalline phase: RH 10 to 80-90% at 40° C.
Protocol: Method 1: influence of temperature at ambient RH. RH was set at 30% in order to simulate a RH near from the ambient RH, and the temperature studied were 25-[…]-100° C.
Method 2: influence on RH at 40° C. The RH studied was at 10-30-80%.
These experiments studied the influence of temperature at ambient RH. RH was wet at 30% in order to simulate a RH near from the ambient RH, and the temperatures studied were 25-50-100° C.
These experiments studied the influence on RH at 40° C. The RH studied were 10-30-88%.
Using Method 1, the influence of temperature at ambient RH was studied. RH was set at 30% in order to simulate a RH near from the ambient RH, and the temperatures studied were 25-50-100° C. FIG. 24 provides the XRPD pattern representing the influence of temperature on Compound 1 Form I.
Using Method 2, the influence on RH at 40° C. was studied. The RH studied were 10-30-90%.
Using Method 1, the influence of temperature at ambient RH was studied. RH was set at 30% in order to simulate a RH near from the ambient RH. Temperature studied: 25-50-100° C.
Using Method 2, the influence on RH at 40° C. was studied at 10-30-90%.

[5] = Solubility profile of Compound 1 Form III in water, ethanol and methanol; conditions: for solubility: thermodynamic from solid
Protocol: The solubility of Compound 1 Form III was measured in the following solvents: water, ethanol and methanol. The determination of the solubility profile was performed with a Thermomixer Eppendorf driving the temperature and the mixing. The stock solutions were prepared according to the USP (United States Pharmacopeia), and then about 1 mL of these stock solutions was added to the API in tubes of 2 mL.

Structure (SMILES): CC1=C(O)C(=O)C=C2C1=CC=C1[C@@]2(C)CC[C@@]2(C)[C@@H]3C[C@](C)(C(=O)O)CC[C@]3(C)CC[C@]12C [Compound 1 Form III, 3-hydroxy-9β,13α-dimethyl-2-oxo-24,25,26-trinoroleana-1(10),3,5,7-tetraen-29-oic acid]
- Hysteresis observed with the final mass at 50% RH ([1]; DVS, 37° C.): No hysteresis
- Mass decrease as RH was lowered to 0% ([1]; DVS, 37° C.): ~0.06%
- Mass increase as RH was increased to 95% ([1]; DVS, 37° C.): ~0.09%
- Water uptake, water sorption/desorption isotherms ([1]; DVS, 37° C.): < 0.2%
- DVS (hygroscopicity) [1]: non-hygroscopic
- DVS (hygroscopicity) ([1]; listed as FIII): Not hygroscopic
- DVS (hygroscopicity) ([1]; listed as Form III): nonhygroscopicity; also recorded: Non hygroscopic compound
- Solubility in the screening solvents [2]: low solubility
- solubility ([3]; USP buffer solutions, aqueous buffer, thermodynamic from solid, USP buffers, native pH 2.0, 4.0, 6.0 and 8.0, read-out: Solubility range): < 1 mg/mL
- pH solubility profile, description form ([3]; pH 2.0 to 8.0): very slight solubility; also recorded: Very slightly
- pH solubility profile, description form ([3]; pH 2.0 to 8.0, listed as Form III): From pH = 2 to pH = 8: very slightly soluble
- XRPD under temperature: impact / new crystalline phase [4]: stable
- XRPD under temperature: impact / new crystalline phase ([4]; listed as FIII): =>No new crystalline
- XRPD under relative humidity: impact / new crystalline phase [4]: stable
- XRPD under relative humidity: impact / new crystalline phase ([4]; listed as FIII): =>No new crystalline
- solubility ([5]; 30 °C, water, 10, 30 and 50° C.): < 1 mg/mL
- Solubility profile: ethanol (description) ([5]; ethanol): Ethanol: Soluble
- Solubility profile: methanol (description) ([5]; methanol): Methanol: Sparingly Soluble
- solubility ([5]; organic solvent or mixture, ethanol, 10° C.): 33 to 38 mg/mL (≈ 73.2 to 84.3 mM)
- solubility ([5]; organic solvent or mixture, ethanol, 30° C.): 33 to 38 mg/mL (≈ 73.2 to 84.3 mM)
- solubility ([5]; organic solvent or mixture, ethanol, 50° C.): 33 to 38 mg/mL (≈ 73.2 to 84.3 mM)
- solubility ([5]; organic solvent or mixture, methanol, 10° C.): 27 to 33 mg/mL (≈ 59.9 to 73.2 mM)
- solubility ([5]; organic solvent or mixture, methanol, 30° C.): 27 to 33 mg/mL (≈ 59.9 to 73.2 mM)
- solubility ([5]; organic solvent or mixture, methanol, 50° C.): 27 to 33 mg/mL (≈ 59.9 to 73.2 mM)
- Solubility profile: water (description) ([5]; water): Water: Very slightly soluble
